Experimental data reported in patent publication US4069318A, “N^2 -Alkoxynaphthalenesulfonyl-L-argininamides and the pharmaceutically acceptable salts thereof” (Mitsubishi Chemical Industries Ltd., priority 1974, dated 1978).

Key:
[1] = acute toxicity (LD50) by intraperitoneal administration in mice; details: mouse, in vivo, ip, mice (male, 20 g)
From the text: On the other hand, LD50 values for N^2 -dansyl-N-butyl-L-argininamide and N^2 -dansyl-N-methyl-N-butyl-L-argininamide are 75 and 70 milligrams per kilogram, respectively.

thrombin = target: T1, thrombin (Bos taurus, UniProt P00735); assay: fibrinogen coagulation time (thrombin-induced); type: biochemical; details: bovine fibrinogen, thrombin 5 units/ml, borate saline buffer pH 7.4, 25° C; control 50-55 seconds; read-out: Concentration required to prolong the coagulation time by a factor of two
T1 construct: bovine fibrinogen as substrate
Description: Immediately after mixing, the reaction mixture was transferred from the ice bath to a bath maintained at 25° C. Coagulation times were taken as the period between the time of transference to the 25° C bath and the time of the first appearance of fibrin threads.

Row | SMILES | LD50 [1] [mg/kg] | IC (2-fold clotting time) (thrombin) [µM]
1 | COc1cc2ccc(S(=O)(=O)N[C@@H](CCCNC(=N)N)C(=O)N(CC(=O)O)Cc3ccccc3)cc2cc1OC [Sample 2, N^2-(6,7-dimethoxy-2-naphthalenesulfonyl)-L-arginyl-N-benzylglycine] | > 1000 | 
2 | CCCCN(C)C(=O)[C@H](CCCNC(=N)N)NS(=O)(=O)c1cccc2c(N(C)C)cccc12 [N^2 -dansyl-N-methyl-N-butyl-L-argininamide, reference compound] | 70 | 
3 | COc1cccc2c(S(=O)(=O)N[C@@H](CCCNC(=N)N)C(=O)N(CC(=O)O)Cc3ccccc3)cccc12 [Sample 18, N^2-(5-methoxy-1-naphthalenesulfonyl)-L-arginyl-N-benzylglycine] | > 1000 | 2
4 | COc1ccc2cc(S(=O)(=O)N[C@@H](CCCNC(=N)N)C(=O)N(CC(=O)O)Cc3ccccc3)cc(OC)c2c1 [Sample 10, N^2-(4,6-dimethoxy-2-naphthalenesulfonyl)-L-arginyl-N-benzylglycine] | > 1000 | 
5 | CCCCNC(=O)[C@H](CCCNC(=N)N)NS(=O)(=O)c1cccc2c(N(C)C)cccc12 [N^2 -dansyl-N-butyl-L-argininamide, reference compound] | 75 | 
6 | COc1cc2ccc(S(=O)(=O)N[C@@H](CCCNC(=N)N)C(=O)N(CCc3ccccc3)CC(=O)O)cc2cc1OC [Sample 6, N^2-(6,7-dimethoxy-2-naphthalenesulfonyl)-L-arginyl-N-phenethylglycine] | > 1500 | 
